According to patent US11932636B2, “RAD51 inhibitors” (Cyteir Therapeutics, Inc., priority 2019, dated 2024):

These compounds were tested on Daudi cells (AID positive) (assay: Compound primary screening: cell death in AID positive Daudi cells (Cell-Titer Glo, Day 7)). Conditions: Homo sapiens, 168 h; Daudi cells, AID positive; cell death on Day 7, Cell-Titer Glo; read-out: Cellular activity in AID + (Daudi).
Type: cell-based
Method: Example 149. Compound Primary Screening
AID expressing cells are dependent upon RAD51 for survival; inhibiting RAD51 in AID positive cells results in a cytotoxic effect.
A 96 well u-bottom plate was prepared by writing the experiment number, plate number, date and initials in the top right corner of the plate lid. With a sterile 300 ml reservoir, and 25 ml serological pipette, evaporation buffer media was pipetted into reservoir in 25 ml increments. Using the liquid handler, 150 ul of evaporation buffer media was pipetted from reservoir into rows A and H, and Columns 1 and 12 of the 96 well u-bottom plate. Cell cultures were counted to obtain the density of cells per ml, and the culture viability. The cell density information was used to obtain 1,000,000 cells from culture using a 5 mL serological pipette into an epi tube. The cell density information from the culture was used to calculate the number of cells and volume of media needed for the assay to seed 1250 cells in 130 ul of media per available culture well in the 96 well u-bottom plate. Rows B through F were used for cells (50 wells in total), with row G left for an empty media control. The calculation was overestimated by 10 mL to account for the dead volume in the 300 ml reservoir. Once the media volume was calculated, the appropriate volume of media was pipetted in 25 mL increments into the 250 mL bottle using a 25 mL serological pipette. The 250 ml bottle was capped tightly, and placed into a 37° C. water bath for 2 minutes. While the culture media was warming, 10 mL of fresh media was pipetted from the 500 mL culture media bottle into a sterile 25 mL reservoir. Using the Eppendorf multichannel pipette, 130 ul of media was pipetted from the 25 mL reservoir into row G of the 96 well u-bottom plate. Once the 250 mL bottle of media was warmed, the volume of culture needed was pipetted into the bottle, and mixed gently with a 25 mL serological pipette as to not create bubbles, and then the contents of the bottle were pipetted into a new 300 mL reservoir. Using the liquid handler, 130 ul of culture was pipetted from the 300 mL reservoir into rows B through F of the 96 well u-bottom plate. Once the culture was added, the plate was placed into a 37° C. incubator until the compound master plate was prepared for use.
Two 96 well u-bottom plates were prepared by writing the master plate name in the upper right corner of the plate lid. Labeling one DMSO master and the other Media Master. The compounds of interest were obtained from the laboratory freezer, and placed into a 25 well storage box with a lid, and set the box aside. The compounds were vortexed after thawing but before use. Using an automatic multichannel pipette, 20 ul of 100% DMSO was pipetted into wells B3-B11 through G3-G11 of the DMSO master plate. For each compound on the master plate, 50 ul of the compound were pipetted in the appropriate well of row 2 (reference plate map to determine appropriate well). A serial dilution was prepared beginning by aspirating 20 ul from row 2 and mixing with row 3, repeating until row 11 was reached. Using the liquid handler, 194 ul of Daudi media was dispensed into wells B2-B11 through G2-G11 of the Media master plate. Using the liquid handler, 6 ul from the DMSO master plate was aspirated and dispensed into the media master plate, mixing 100 ul twice.
Compounds from master plate were then added to the culture plate. The culture plates were removed from the incubator, and set inside the biosafety cabinet. Using a liquid handler, 20 ul from wells B2 to B11 through G2 to G11 of master plate were aspirated, and dispensed into wells B2 to B11 through G2 to G11 of culture plate. This set was continued with each culture plate. Once the culture plates acquired their 20 ul of compound dilutions, they were placed back into the incubator, until their reads on Day 7 of experiment.
Cell death was measured on Day 7 of the experiment using Cell-Titer Glo and a Promega Plate reader.
`CC(C)OC(=O)N[C@H]1CC[C@H](c2ncc(-c3ccc(Nc4ncc[nH]4)cc3S(=O)(=O)NC(C)(C)C)s2)CC1` [Compound 38, isopropyl trans-N-[4-[5-[2-(tert-butylsulfamoyl)-4-(1H-imidazol-2-ylamino)phenyl]thiazol-2-yl]cyclohexyl]carbamate] was tested, and the EC50 was less than 0.1 µM. Compound `CC(C)NC(=O)Cc1ccc(-c2cnc([C@H]3CC[C@H](NC(=O)OC(C)C)CC3)s2)c(S(=O)(=O)NC(C)(C)C)c1` [Compound 40, isopropyl trans-N-[4-[5-[2-(tert-butylsulfamoyl)-4-[2-(isopropylamino)-2-oxo-ethyl]phenyl]thiazol-2-yl]cyclohexyl]carbamate] has an EC50 of less than 0.1 µM. `CC(C)NC(=O)Cc1ccc(-c2cnc([C@H]3CC[C@H](NC(=O)OC4COC4)CC3)s2)c(S(=O)(=O)NC(C)(C)C)c1` [Compound 41, oxetan-3-yl (trans-4-(5-(2-(N-(tert-butyl)sulfamoyl)-4-(2-(isopropylamino)-2-oxoethyl)phenyl)thiazol-2-yl)cyclohexyl)carbamate] was tested, and the EC50 was 0.1 to 1 µM. In the case of `CC(C)OC(=O)N[C@H]1CC[C@H](c2ncc(-c3ccc(Nc4ncco4)cc3S(=O)(=O)NC(C)(C)C)s2)CC1` [Compound 42, isopropyl (trans-4-(5-(2-(N-(tert-butyl)sulfamoyl)-4-(oxazol-2-ylamino)phenyl)thiazol-2-yl)cyclohexyl)carbamate], the EC50 is reported as less than 0.1 µM. In the case of `CC(C)OC(=O)N[C@H]1CC[C@H](c2ncc(-c3ccccc3S(N)(=O)=O)s2)CC1` [Compound 44, isopropyl trans-N-[4-[5-(2-sulfamoylphenyl)thiazol-2-yl]cyclohexyl]carbamate], the EC50 is reported as 1 to 10 µM. For `CCNS(=O)(=O)c1ccccc1-c1cnc([C@H]2CC[C@H](NC(=O)OC(C)C)CC2)s1` [Compound 45, isopropyl (trans-4-(5-(2-(N-ethylsulfamoyl)phenyl)thiazol-2-yl)cyclohexyl)carbamate], the EC50 was 1 to 10 µM. Compound `CC(C)OC(=O)N[C@H]1CC[C@H](c2ncc(-c3ccccc3S(=O)(=O)NC(C)(C)C)s2)CC1` [Compound 46, isopropyl (trans-4-(5-(2-(N-(tert-butyl)sulfamoyl)phenyl)thiazol-2-yl)cyclohexyl)carbamate] has an EC50 of 1 to 10 µM. In the case of `CCNS(=O)(=O)c1cc(C(=O)O)ccc1-c1cnc([C@H]2CC[C@H](NC(=O)OC(C)C)CC2)s1` [Compound 48, trans-3-(ethylsulfamoyl)-4-[2-[4-(isopropyloxycarbonyl-amino)cyclohexyl]thiazol-5-yl]benzoic acid], the EC50 is reported as 1 to 10 µM. `CCNS(=O)(=O)c1cc(C(N)=O)ccc1-c1cnc([C@H]2CC[C@H](NC(=O)OC(C)C)CC2)s1` [Compound 49, isopropyl trans-N-[4-[5-[4-carbamoyl-2-(ethylsulfamoyl)phenyl]thiazol-2-yl]cyclohexyl]carbamate] gave an EC50 of 0.1 to 1 µM. `CCNS(=O)(=O)c1cc(C(=O)NC(C)C)ccc1-c1cnc([C@H]2CC[C@H](NC(=O)OC(C)C)CC2)s1` [Compound 50, isopropyl (trans-4-(5-(2-(N-ethylsulfamoyl)-4-(isopropylcarbamoyl)phenyl)thiazol-2-yl)cyclohexyl)carbamate] showed an EC50 of 0.1 to 1 µM. `CCNS(=O)(=O)c1cc(COCC(C)C)ccc1-c1cnc([C@H]2CC[C@H](NC(=O)OC(C)C)CC2)s1` [Compound 51, isopropyl (trans-4-(5-(2-(N-ethylsulfamoyl)-4-(isobutoxymethyl)phenyl)thiazol-2-yl)cyclohexyl)carbamate] gave an EC50 of 0.1 to 1 µM. `CCNS(=O)(=O)c1cc(COCC(C)C)ccc1-c1cnc([C@H]2CC[C@H](NC(=O)OC3COC3)CC2)s1` [Compound 52, oxetan-3-yl trans-N-[4-[5-[2-(ethylsulfamoyl)-4-(isobutoxy-methyl)phenyl]thiazol-2-yl]cyclohexyl]carbamate] showed an EC50 of 0.1 to 1 µM. `CC(C)OC(=O)N[C@H]1CC[C@H](c2ncc(-c3ccc(C#N)cc3S(=O)(=O)N3CCC3)s2)CC1` [Compound 54, isopropyl trans-N-[4-[5-[2-(azetidin-1-ylsulfonyl)-4-cyano-phenyl]thiazol-2-yl]cyclohexyl]carbamate] gave an EC50 of 1 to 10 µM. `CCNS(=O)(=O)c1cc(Nc2ncc[nH]2)ccc1-c1cnc([C@H]2CC[C@H](NC(=O)OC(C)C)CC2)s1` [Compound 56, isopropyl trans-N-[4-[5-[2-(ethylsulfamoyl)-4-(1H-imidazol-2-ylamino)phenyl]thiazol-2-yl]cyclohexyl]carbamate] gave an EC50 of less than 0.1 µM. `CCNS(=O)(=O)c1cc(CC(=O)NC(C)C)ccc1-c1cnc([C@H]2CC[C@H](NC(=O)OC(C)C)CC2)s1` [Compound 58, isopropyl trans-N-[4-[5-[2-(ethylsulfamoyl)-4-[2-(isopropylamino)-2-oxo-ethyl]phenyl]thiazol-2-yl]cyclohexyl]carbamate] was tested, and the EC50 was 0.1 to 1 µM. With `CCNS(=O)(=O)c1cc(CC(=O)NC(C)C)ccc1-c1cnc([C@H]2CC[C@H](NC(=O)OC3COC3)CC2)s1` [Compound 59, oxetan-3-yl (trans-4-(5-(2-(N-ethylsulfamoyl)-4-(2-(isopropylamino)-2-oxoethyl)phenyl)thiazol-2-yl)cyclohexyl)carbamate] the EC50 was 0.1 to 1 µM. `CCNS(=O)(=O)c1cc(Nc2ncco2)ccc1-c1cnc([C@H]2CC[C@H](NC(=O)OC(C)C)CC2)s1` [Compound 60, isopropyl (trans-4-(5-(2-(N-ethylsulfamoyl)-4-(oxazol-2-ylamino)phenyl)thiazol-2-yl)cyclohexyl)carbamate] was tested, and the EC50 was less than 0.1 µM. For `CCNS(=O)(=O)c1cc(C(=O)O)ccc1-c1cnc([C@H]2CC[C@H](NC(=O)OC3COC3)CC2)s1` [Compound 66, trans-3-(ethylsulfamoyl)-4-[2-[4-(oxetan-3-yloxy-carbonylamino)cyclohexyl]thiazol-5-yl]benzoic acid], the EC50 was 1 to 10 µM. `CCNS(=O)(=O)c1cc(C(N)=O)ccc1-c1cnc([C@H]2CC[C@H](NC(=O)OC3COC3)CC2)s1` [Compound 67, oxetan-3-yl trans-N-[4-[5-[4-carbamoyl-2-(ethylsulfamoyl)phenyl]thiazol-2-yl]cyclohexyl]carbamate] was tested, and the EC50 was 1 to 10 µM. In the case of `CCNS(=O)(=O)c1cc(C(=O)NC(C)C)ccc1-c1cnc([C@H]2CC[C@H](NC(=O)OC3COC3)CC2)s1` [Compound 68, oxetan-3-yl (trans-4-(5-(2-(N-ethylsulfamoyl)-4-(isopropylcarbamoyl)phenyl)thiazol-2-yl)cyclohexyl)carbamate], the EC50 is reported as 0.1 to 1 µM. `CCNS(=O)(=O)c1cc(NC2(C(C)C)COC2)ccc1-c1cnc([C@H]2CC[C@H](NC(=O)OC(C)C)CC2)s1` [Compound 69, isopropyl trans-N-[4-[5-[2-(ethylsulfamoyl)-4-[(3-isopropyloxetan-3-yl)amino]phenyl]thiazol-2-yl]cyclohexyl]carbamate] gave an EC50 of less than 0.1 µM. `CCNS(=O)(=O)c1cc(NC2(CC(C)C)COC2)ccc1-c1cnc([C@H]2CC[C@H](NC(=O)OC(C)C)CC2)s1` [Compound 70, isopropyl trans-N-[4-[5-[2-(ethylsulfamoyl)-4-[(3-isobutyloxetan-3-yl)amino]phenyl]thiazol-2-yl]cyclohexyl]carbamate] was tested, and the EC50 was 0.1 to 1 µM. Work on `CCNS(=O)(=O)c1cc(C(=O)OC)ccc1-c1cnc([C@H]2CC[C@H](NC(=O)OC(C)C)CC2)s1` [Compound 71, methyl trans-3-(ethylsulfamoyl)-4-[2-[4-(isopropoxycarbonyl-amino)cyclohexyl]thiazol-5-yl]benzoate] yielded an EC50 of 1 to 10 µM.
